Assay results reported in US7300930B2, “Therapeutic acridone and acridine compounds” (Cancer Research Technology Limited, priority 2000, dated 2007).

What was measured:
[1] = Growth inhibition, sulforhodamine B (SRB) assay, CH1; format: cell-based; settings: human, CH1 ovarian carcinoma cells, CH1, 96 hr incubation, tested as salts, read-out: Cytotoxicity - IC50 CH1
Method: (§1) Growth inhibition was measured in three human ovarian carcinoma cell lines (A2780, CH1, and SKOV-3) and one human cervix carcinoma cell line (A431) using the sulforhodamine B (SRB) assay. Briefly, between 3000 and 6000 cells were seeded into the wells of 96-well microtiter plates and allowed to attach overnight. Compounds (acid addition and quaternary dimethiodide salts) were dissolved at 500 μM in water and immediately added to wells in quadruplicate at final concentrations of 0.05, 0.25, 1, 5 and 25 μM. Following an incubation period of 96 hr, remaining cells were fixed with ice-cold 10% w/v trichloroacetic acid (30 min) and stained with 0.4% SRB in 1% v/v acetic acid (15 min). Mean absorbance at 540 nm for each drug concentration was expressed as a percentage of the control untreated well absorbance, and IC50 values (concentration required to inhibit cell growth by 50%) were determined for each agent.

[2] = Growth inhibition, sulforhodamine B (SRB) assay, A431; format: cell-based; settings: human, A431 cervix carcinoma cells, A431, 96 hr incubation, tested as salts, read-out: Cytotoxicity - IC50 A431
Method: as §1

[3] = Growth inhibition, sulforhodamine B (SRB) assay, SKOV-3; format: cell-based; settings: human, SKOV-3 ovarian carcinoma cells, SKOV-3, 96 hr incubation, tested as salts, read-out: Cytotoxicity - IC50 SKOV-3
Method: as §1

telomerase = telomerase (Homo sapiens, UniProt O14746); experiment: Modified telomeric repeat amplification protocol (TRAP) assay, cell-free; format: biochemical; settings: extracts from A2780 cells, tested as salts, read-out: telIC50 (Telomerase Inhibitory Activity)
Method: The ability of compounds to inhibit telomerase in a cell-free assay was assessed with a modified TRAP assay using extracts from exponentially growing A2780 human ovarian carcinoma cells. The TRAP assay was performed in 2 steps: (a) telomerase-mediated extension of the forward primer (TS: 5′-AATCCGTCGAGCAGAGTT (SEQ ID NO:3), Oswel Ltd., Southampton, UK) contained in a 40 µL reaction mix comprising TRAP buffer (20 mM Tris-HCl (pH 8.3), 68 mM KCl, 1.5 mM MgCl2, 1 mM EGTA, 0.05% v/v Tween 20), 0.05 μg bovine serum albumin, 50 μM of each deoxynucleotide triphosphate, 0.1 μg TS primer, and 3 μCi of [α-^32P]dCTP (Amersham plc, UK). Protein (40 ng or 20 ng) was then incubated with the reaction mix+agent (acid addition and quaternary dimethiodide salts) at final concentrations of up to 50 μM for 20 min at 25° C. A lysis buffer (no protein) control, heat-inactivated protein control, and 50% protein (20 ng or 10 ng) control were included in each assay; and (b) while heating at 80° C. in a PCR block of a thermal cycler (Hybaid, UK) for 5 min to inactivate telomerase activity, 0.1 μg of reverse CX primer (3′-[…]-5′ (SEQ ID NO:4)) and 2 Units of Taq DNA polymerase (“red hot”, Advanced Biotechnologies) were added. A 3-step PCR was then performed: 94° C. for 30 s, 50° C. for 30 s, and 72° C. for 1 min for 31 cycles. Telomerase-extended PCR products in the presence or absence of compounds were then determined either by electrophoretic separation using 8% w/w acrylamide denaturing gels and analysis by phosphorimaging or autoradiography, or by harvesting on Whatman filters (25 mm glass microfibre) and analysis by liquid scintillation counting.

[4] = Growth inhibition, sulforhodamine B (SRB) assay, A2780; format: cell-based; settings: human, A2780 ovarian carcinoma cells, A2780, 96 hr incubation, tested as salts, read-out: Cytotoxicity - IC50 A2780
Method: as §1

Chain of telomerase (O14746 whole entry): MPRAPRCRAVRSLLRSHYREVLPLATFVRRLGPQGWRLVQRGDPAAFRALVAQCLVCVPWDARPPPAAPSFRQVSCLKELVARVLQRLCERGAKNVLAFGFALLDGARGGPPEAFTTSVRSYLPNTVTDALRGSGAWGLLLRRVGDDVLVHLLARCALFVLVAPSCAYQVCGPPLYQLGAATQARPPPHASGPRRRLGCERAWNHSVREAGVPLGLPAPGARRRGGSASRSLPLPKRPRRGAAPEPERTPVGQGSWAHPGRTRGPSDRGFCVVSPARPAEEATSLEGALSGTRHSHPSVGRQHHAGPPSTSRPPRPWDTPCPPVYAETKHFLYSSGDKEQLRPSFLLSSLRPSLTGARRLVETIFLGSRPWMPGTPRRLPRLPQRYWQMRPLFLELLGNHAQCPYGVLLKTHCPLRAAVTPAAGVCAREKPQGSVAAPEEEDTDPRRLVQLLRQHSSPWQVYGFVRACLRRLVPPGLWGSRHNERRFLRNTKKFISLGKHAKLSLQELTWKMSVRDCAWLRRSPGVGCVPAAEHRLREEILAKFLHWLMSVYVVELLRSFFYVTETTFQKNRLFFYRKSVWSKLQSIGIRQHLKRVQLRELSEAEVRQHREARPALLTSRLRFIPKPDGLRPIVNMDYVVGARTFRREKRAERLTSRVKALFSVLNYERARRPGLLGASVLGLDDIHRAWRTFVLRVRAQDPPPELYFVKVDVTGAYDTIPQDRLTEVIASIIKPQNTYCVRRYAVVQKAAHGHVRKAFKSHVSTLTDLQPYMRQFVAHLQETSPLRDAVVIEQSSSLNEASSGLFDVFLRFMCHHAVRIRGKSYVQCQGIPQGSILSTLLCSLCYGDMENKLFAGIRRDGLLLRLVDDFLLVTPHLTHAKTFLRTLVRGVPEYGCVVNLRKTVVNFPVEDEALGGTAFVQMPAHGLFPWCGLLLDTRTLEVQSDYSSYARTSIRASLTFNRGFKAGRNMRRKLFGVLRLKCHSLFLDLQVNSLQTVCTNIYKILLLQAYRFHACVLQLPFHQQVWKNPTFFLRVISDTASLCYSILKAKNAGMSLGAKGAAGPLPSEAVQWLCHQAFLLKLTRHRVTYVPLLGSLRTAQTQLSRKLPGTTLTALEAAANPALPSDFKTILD

Structure (SMILES): O=C(CCN1CCCCC1CO)Nc1ccc2[nH]c3ccc(NC(=O)CCN4CCCCC4CO)cc3c(=O)c2c1 (stereo not drawn) [JM-ACO-12, 2,7-Bis[3-(2-hydroxymethylpiperidino)propionamido]-9(10H)-acridone]
- IC50 at 96 h [1]: > 25 µM
- IC50 at 96 h [2]: > 25 µM
- IC50 at 96 h [3]: > 25 µM
- IC50 (telomerase): 2.33 µM
- IC50 at 96 h [4]: > 25 µM

Structure (SMILES): CCN1CCN(CCC(=O)Nc2ccc3c(=O)c4ccc(NC(=O)CCN5CCN(CC)CC5)cc4[nH]c3c2)CC1 [BR-ACO-39]
- IC50 at 96 h [1]: > 25 µM
- IC50 at 96 h [3]: > 25 µM
- IC50 (telomerase): 0.74 µM
- IC50 at 96 h [4]: > 25 µM

Structure (SMILES): COCCNc1c2ccc(NC(=O)CCN3CCCC3)cc2nc2cc(NC(=O)CCN3CCCC3)ccc12 [JH-ACI-86, N-[9-(2-Methoxy-ethylamino)]-3,6-bis(3-pyrrolidinopropionamido)acridine]
- IC50 at 96 h [1]: 3.2 µM
- IC50 at 96 h [2]: 10 µM
- IC50 at 96 h [3]: 17.8 µM
- IC50 (telomerase): 0.14 µM
- IC50 at 96 h [4]: 10 µM

Structure (SMILES): CC1CCN(CCC(=O)Nc2ccc3c(=O)c4ccc(NC(=O)CCN5CCC(C)CC5)cc4[nH]c3c2)CC1 [BR-ACO-33, 3,6-Bis[3-(4-methylpiperidino)propionamido]-9(10H)-acridone]
- IC50 at 96 h [1]: 3 µM
- IC50 at 96 h [3]: 5.6 µM
- IC50 (telomerase): 1.9 µM
- IC50 at 96 h [4]: 3 µM

Structure (SMILES): O=C(CCN1CCCC1)Nc1ccc2c(NC3CCCCC3)c3ccc(NC(=O)CCN4CCCC4)cc3nc2c1 [JH-ACI-82, N-[9-(Cyclohexylamino)]-3,6-bis(3-pyrrolidinopropionamido)acridine]
- IC50 at 96 h [1]: 2.8 µM
- IC50 at 96 h [2]: 2.5 µM
- IC50 at 96 h [3]: 1.1 µM
- IC50 (telomerase): 0.09 µM
- IC50 at 96 h [4]: 12.5 µM

Structure (SMILES): CC1(C)CC2CC(C)(CN2CCC(=O)Nc2ccc3c(=O)c4ccc(NC(=O)CCN5CC6(C)CC5CC(C)(C)C6)cc4[nH]c3c2)C1 [JH-ACO-32, 3,6-Bis[(1,3,3-trimethyl-6-azabicyclo[3.2.1]-octanamino)propionamido]-9(10H)-acridone]
- IC50 at 96 h [1]: 2.5 µM
- IC50 at 96 h [2]: 10 µM
- IC50 at 96 h [3]: 2.5 µM
- IC50 (telomerase): 1.77 µM
- IC50 at 96 h [4]: 1.9 µM

Structure (SMILES): O=C(CCN1CCOCC1)Nc1ccc2c(O)c3ccc(NC(=O)CCN4CCOCC4)cc3nc2c1 [BR-ACO-8, 3,6-Bis[3-(morpholino)propionamido]-9(10H)-acridone]
- IC50 at 96 h [1]: > 25 µM
- IC50 at 96 h [3]: > 25 µM
- IC50 (telomerase): 49 µM
- IC50 at 96 h [4]: > 25 µM

Structure (SMILES): CN(C)CCNc1c2ccc(NC(=O)CCN3CCCC3)cc2nc2cc(NC(=O)CCN3CCCC3)ccc12 [SB-ACI-11, N-[9-(N,N-Dimethylethylenediamino)]-3,6-bis(3-pyrrolidinopropionamido)acridine]
- IC50 at 96 h [1]: 17 µM
- IC50 at 96 h [2]: > 25 µM
- IC50 at 96 h [3]: > 25 µM
- IC50 (telomerase): 0.018 µM
- IC50 at 96 h [4]: > 25 µM

Structure (SMILES): CN(C)CCC(=O)Nc1ccc2nc3ccc(NC(=O)CCN(C)C)cc3c(O)c2c1 [JH-ACO-22, 2,7-Bis(3-dimethylaminopropionamido)-9(10H)-acridone]
- IC50 at 96 h [1]: > 25 µM
- IC50 at 96 h [2]: > 25 µM
- IC50 at 96 h [3]: > 25 µM
- IC50 (telomerase): 1.92 µM
- IC50 at 96 h [4]: > 25 µM

Structure (SMILES): CSc1ccccc1Nc1c2ccc(NC(=O)CCN3CCCC3)cc2nc2cc(NC(=O)CCN3CCCC3)ccc12 [JC-ACI-4, N-{9-[2′-(Methylsulfanyl)phenylamino]}-3,6-bis(3-pyrrolidinopropionamido)acridine]
- IC50 at 96 h [2]: 2.5 µM
- IC50 (telomerase): 0.15 µM

Structure (SMILES): CC1CCCCN1CCC(=O)Nc1ccc2c(=O)c3ccc(NC(=O)CCN4CCCCC4C)cc3[nH]c2c1 (stereo not drawn) [BR-ACO-36, 3,6-Bis[3-(2-methylpiperidino)propionamido]-9(10H)-acridone]
- IC50 at 96 h [1]: 11.8 µM
- IC50 at 96 h [3]: 12 µM
- IC50 (telomerase): 3.3 µM
- IC50 at 96 h [4]: 13 µM

Structure (SMILES): CC(=O)c1ccc(Nc2c3ccc(NC(=O)CCN4CCCC4)cc3nc3cc(NC(=O)CCN4CCCC4)ccc23)cc1 [JH-ACI-90, N-[9-(4′-Acetylphenylamino)]-3,6-bis(3-pyrrolidinopropionamido)acridine]
- IC50 at 96 h [1]: 1.8 µM
- IC50 at 96 h [2]: 2.2 µM
- IC50 at 96 h [3]: 3.4 µM
- IC50 (telomerase): 0.04 µM
- IC50 at 96 h [4]: 3.2 µM

Structure (SMILES): CC1CCCCN1CCC(=O)Nc1ccc2nc3ccc(NC(=O)CCN4CCCCC4C)cc3c(O)c2c1 (stereo not drawn) [JM-ACO-07, 2,7-Bis[3-(2-methylpiperidino)propionamido]-9(10H)-acridone]
- IC50 at 96 h [1]: > 25 µM
- IC50 at 96 h [2]: > 25 µM
- IC50 at 96 h [3]: > 25 µM
- IC50 (telomerase): 1.97 µM
- IC50 at 96 h [4]: > 25 µM

Structure (SMILES): O=C(CCN1CCCCC1)Nc1ccc2nc3ccc(NC(=O)CCN4CCCCC4)cc3c(O)c2c1 [BR-ACO-10, 2,7-Bis[3-(piperidino)propionamido]-9(10H)-acridone]
- IC50 at 96 h [1]: > 25 µM
- IC50 at 96 h [3]: > 25 µM
- IC50 (telomerase): 5.8 µM
- IC50 at 96 h [4]: > 25 µM

Structure (SMILES): CCN(CC)CCC(=O)Nc1ccc2c(=O)c3ccc(NC(=O)CCN(CC)CC)cc3[nH]c2c1 [BR-ACO-7, 3,6-Bis[3-(diethylamino)propionamido]-9(10H)-acridone]
- IC50 at 96 h [1]: > 25 µM
- IC50 at 96 h [3]: > 25 µM
- IC50 (telomerase): 5.7 µM
- IC50 at 96 h [4]: > 25 µM

Structure (SMILES): CN1CCN(CCC(=O)Nc2ccc3[nH]c4ccc(NC(=O)CCN5CCN(C)CC5)cc4c(=O)c3c2)CC1 [JH-ACO-28, 2,7-Bis[3-(4′-N-methyl)piperizinopropionamido]-9(10H)-acridone]
- IC50 at 96 h [1]: > 25 µM
- IC50 at 96 h [2]: > 25 µM
- IC50 at 96 h [3]: > 25 µM
- IC50 (telomerase): 0.66 µM
- IC50 at 96 h [4]: > 25 µM

Structure (SMILES): Nc1cccc(Nc2c3ccc(NC(=O)CCN4CCCC4)cc3nc3cc(NC(=O)CCN4CCCC4)ccc23)c1 [JH-ACI-74, N-{9-[3′-(Amino)phenylamino]}-3,6-bis(3-pyrrolidinopropionamido)acridine]
- IC50 at 96 h [1]: 15.8 µM
- IC50 at 96 h [2]: 12.6 µM
- IC50 at 96 h [3]: > 25 µM
- IC50 (telomerase): 0.06 µM
- IC50 at 96 h [4]: 12.6 µM

Structure (SMILES): O=C(CCN1CCCCC1)Nc1ccc2c(=O)c3ccc(NC(=O)CCN4CCCCC4)cc3[nH]c2c1 [BR-ACO-5, 3,6-Bis[3-(piperidino)propionamido]-9(10H)-acridone]
- IC50 at 96 h [1]: 13 µM
- IC50 at 96 h [3]: 21 µM
- IC50 (telomerase): 5.9 µM
- IC50 at 96 h [4]: 19 µM

Structure (SMILES): CCC1CCCCN1CCC(=O)Nc1ccc2c(=O)c3ccc(NC(=O)CCN4CCCCC4CC)cc3[nH]c2c1 (stereo not drawn) [BR-ACO-37, 3,6-Bis[3-(2-ethylpiperidino)propionamido]-9(10H)-acridone]
- IC50 at 96 h [1]: 11 µM
- IC50 at 96 h [3]: 10.5 µM
- IC50 (telomerase): 1.6 µM
- IC50 at 96 h [4]: 11.8 µM

Structure (SMILES): O=C(CCN1CCCC1)Nc1ccc2nc3ccc(NC(=O)CCN4CCCC4)cc3c(O)c2c1 [BR-ACO-9, 2,7-Bis[3-(pyrrolidino)propionamido]-9(10H)-acridone]
- IC50 at 96 h [1]: > 25 µM
- IC50 at 96 h [3]: > 25 µM
- IC50 (telomerase): 2.8 µM
- IC50 at 96 h [4]: > 25 µM

Structure (SMILES): O=C(CCN1CCC(O)CC1)Nc1ccc2c(O)c3ccc(NC(=O)CCN4CCC(O)CC4)cc3nc2c1 [BR-ACO-34, 3,6-Bis[3-(4-hydroxypiperidino)propionamido]-9(10H)-acridone]
- IC50 at 96 h [1]: > 25 µM
- IC50 at 96 h [3]: > 25 µM
- IC50 (telomerase): 1.8 µM
- IC50 at 96 h [4]: > 25 µM

Structure (SMILES): CN(C)CCC(=O)Nc1ccc2c(=O)c3ccc(NC(=O)CCN(C)C)cc3[nH]c2c1 [BR-ACO-6, 3,6-Bis[3-(dimethylamino)propionamido]-9(10H)-acridone]
- IC50 at 96 h [1]: > 25 µM
- IC50 at 96 h [3]: > 25 µM
- IC50 (telomerase): 4.3 µM
- IC50 at 96 h [4]: > 25 µM

Structure (SMILES): O=C(CCN1CCCC1)Nc1ccc2c(Nc3ccc(F)cc3)c3ccc(NC(=O)CCN4CCCC4)cc3nc2c1 [JC-ACI-3, N-{9-[4′-Fluorophenylamino]}-3,6-bis(3-pyrrolidinopropionamido)acridine]
- IC50 at 96 h [2]: 2.5 µM
- IC50 (telomerase): 0.07 µM

Structure (SMILES): O=C(CCN1CCCC1)Nc1ccc2c(=O)c3ccc(NC(=O)CCN4CCCC4)cc3[nH]c2c1 [BR-ACO-4, 3,6-Bis[3-(pyrrolidino)propionamido]-9(10H)-acridone]
- IC50 at 96 h [1]: > 25 µM
- IC50 at 96 h [3]: > 25 µM
- IC50 (telomerase): 8 µM
- IC50 at 96 h [4]: > 25 µM
